Patent US20060079568A1, “Inhibition of atherosclerosis by diindolylmethane analogs” (The Texas A&M University System, priority 2004, published 2006)
Entries after “also recorded” stand apart in the source; their conditions may differ.

Assays:
ICAM-1 = experiment: TNF-α-induced cell surface expression of ICAM-1 in HUVECs measured by FACS; format: cell-based, human; conditions: then 5 ng/ml TNF-α; for reduction of TNF-α-induced ICAM-1 expression: 10 μmol/L pretreatment 6 hours, vs TNF-α-stimulated control cells; for effect on TNF-α-induced ICAM-1 expression (in words): pretreatment 6 hours (up to 10 μmol/L)
Experimental: The expression of ICAM-1 on the cell surface was determined in HUVECs cultured in six-well plates pretreated with one of the three different p-substituted phenyl DIM analogs or with vehicle (0.1% DMSO) at the concentrations indicated. Their effects were compared with those of other PPARγ agonists by preincubating HUVECs with ciglitazone (Biomol, Plymouth meeting, Pa.) or 15d-PGJ2 (Calbiochem, San Diego, Calif.) at the same doses.
After 6 hours, cells were incubated with TNF-α (R&D Systems, Minneapolis, Minn.) at a concentration of 5 ng/ml for 12 hours. Cells were then detached with 10 mmol/L EDTA in 0.5% phosphate-buffered saline, collected by centrifugation, and stained for 30 minutes on ice in the dark with R-phycoerythrin-labeled monoclonal antibody against ICAM-1 (CD54) or with the appropriate R-phycoerythrin-labeled isotype IgG (Pharmingen, San Diego, Calif.) as a control.
The fluorescence intensity of 10,000 gated viable cells was analyzed for each sample on a FACSCalibur Flow Cytometer (Becton Dickinson Immunocytometry Systems, San Diego, Calif.) using Cell Quest (Becton Dickinson) acquisition software. All experiments were performed in triplicate.

IL-6 = IL-6 production in supernatants of TNF-α-stimulated HUVECs, ELISA; format: cell-based, human; conditions: for IL-6 level in supernatant after TNF-α stimulation: 10 μmol/L pretreatment 6 hours, then 5 ng/ml TNF-α 6 hours, TNF-α alone 228±12.7, baseline 52.8±7.5; for effect on TNF-α-induced IL-6 production (in words): 10 μmol/L pretreatment, 5 ng/ml TNF-α
Experimental: (§1) In order to measure chemokine levels in the cell supernatant, HUVECs cultured in 24-well plates were preincubated for 6 hours with one of the three p-substituted phenyl DIM analogs at the concentrations indicated or with vehicle and then stimulated with 5 ng/ml TNF-α. For comparison, HUVECs were also preincubated with ciglitazone or 15d-PGJ2 at the same concentrations and then stimulated with TNF-α at a concentration of 5 ng/ml. Cell culture supernatants were collected 6 and 24 hours after the stimulation for analysis of IL-6 and MCP-1, respectively.
(§2) The levels of IL-6 and MCP-1 were quantified using commercial ELISA kits (BioSource International, Camarillo, Calif.) according to the manufacturer's directions. The minimum detectable concentration of the assay was 2 pg/ml for IL-6 and <20 pg/ml for MCP-1. All experiments were performed in triplicate.
(§3) To determine the effects of the three p-substituted phenyl DIM analogs on TNF-α-induced chemokine production in HUVECs, cells were pretreated for 6 hours with one of the three analogs at the concentrations indicated or with vehicle and then stimulated with 5 ng/ml TNF-α for the indicated time before the chemokine assays were performed.

MCP-1 = MCP-1 production in supernatants of TNF-α-stimulated HUVECs, ELISA; format: cell-based, human; conditions: for MCP-1 level in supernatant after TNF-α stimulation: 10 μmol/L pretreatment 6 hours; for effect on TNF-α-induced MCP-1 production (in words): 10 μmol/L pretreatment, 5 ng/ml TNF-α
Experimental: as §1, §2, §3

HUVECs = experiment: Treatment of unstimulated HUVECs: apoptosis and baseline ICAM-1 expression; conditions: up to 10 μmol/L, HUVECs without TNF-α (data not shown)
PPAR-γ = target: T1, PPAR-γ (Homo sapiens, UniProt P37231); conditions: earlier structure-activity studies [5]; cited from earlier work
T1 sequence (P37231 1-505): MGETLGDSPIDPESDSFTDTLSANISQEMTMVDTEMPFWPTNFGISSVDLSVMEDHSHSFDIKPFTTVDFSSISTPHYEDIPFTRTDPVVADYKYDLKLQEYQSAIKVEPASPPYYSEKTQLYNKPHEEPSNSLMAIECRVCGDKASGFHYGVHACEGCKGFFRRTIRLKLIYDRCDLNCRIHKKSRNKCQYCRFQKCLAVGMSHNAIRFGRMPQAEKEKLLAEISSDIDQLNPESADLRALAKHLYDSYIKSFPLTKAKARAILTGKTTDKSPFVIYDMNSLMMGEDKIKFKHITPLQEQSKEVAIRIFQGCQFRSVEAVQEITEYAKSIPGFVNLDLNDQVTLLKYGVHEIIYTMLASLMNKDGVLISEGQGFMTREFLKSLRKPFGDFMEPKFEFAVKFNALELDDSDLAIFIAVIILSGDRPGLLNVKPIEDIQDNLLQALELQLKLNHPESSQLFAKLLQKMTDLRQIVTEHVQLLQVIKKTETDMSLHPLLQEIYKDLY

[1] = then 5 ng/ml TNF-α 24 hours, TNF-α alone 7.8±0.19, baseline 1.05±0.07

Structure (SMILES) | reduction of TNF-α-induced ICAM-1 expression (ICAM-1) [%] | effect on TNF-α-induced ICAM-1 expression (in words) (ICAM-1) | IL-6 level in supernatant after TNF-α stimulation (IL-6) [pg/mL] | effect on TNF-α-induced IL-6 production (in words) (IL-6) | MCP-1 level in supernatant after TNF-α stimulation (MCP-1; then 5 ng/mL TNF-α, comparison agonists) [ng/mL] | effect on TNF-α-induced MCP-1 production (in words) (MCP-1) | change of baseline expression of ICAM-1 (HUVECs) | MCP-1 level in supernatant after TNF-α stimulation (MCP-1; [1]) [ng/mL] | PPAR-γ agonist activity (PPAR-γ) | induction of apoptosis (HUVECs)
CCCCC/C=C/C=C1/C(=O)C=C[C@@H]1C/C=C\CCCC(=O)O [15d-PGJ2, 15-deoxy-δ^12,14-prostaglandin J2, reference compound] | 84.4 | significantly inhibited; also recorded: decreased | 29.8 ± 1.6 | significantly inhibited | 1.5 ± 0.3 | significantly inhibited | did not induce apoptosis or change the baseline expression of ICAM-1 | – | – | –
c1ccc(-c2ccc(C(c3c[nH]c4ccccc34)c3c[nH]c4ccccc34)cc2)cc1 [DIM-C-pPhC6H5, 1,1-bis(3′-indolyl)-1-(p-biphenyl) methane] | 71.3 | inhibited; also recorded: decreased | 143.4 ± 12.2 | inhibited | – | inhibited | – | 2.2 ± 0.49 | potent; also recorded: active agents | –
Cc1ccc(C(c2c[nH]c3ccccc23)c2c[nH]c3ccccc23)cc1 [DIM-C-pPhCH3] | 32 | lower activity; also recorded: inactive | – | lower activity; also recorded: did not decrease; also recorded: did not significantly inhibit | – | lower activity; also recorded: did not decrease; also recorded: did not affect | – | – | less active; also recorded: low PPAR-γ agonist activity; also recorded: relatively inactive | –
CC(C)(C)c1ccc(C(c2c[nH]c3ccccc23)c2c[nH]c3ccccc23)cc1 [DIM-C-pPhtBu, 1,1-bis(3′-indolyl)-1-(p-t-butylphenyl) methane] | 77.5 | inhibited; also recorded: decreased the expression of ICAM-1 in a concentration-dependent manner | 130.3 ± 19.3 | inhibited | – | inhibited | – | 3.9 ± 0.41 | potent; also recorded: active agents | –
CC1(COc2ccc(CC3SC(=O)NC3=O)cc2)CCCCC1 (stereo not shown) [ciglitazone, reference compound] | – | inactive; also recorded: no inhibitory effect | 207 ± 13 | inactive | – | inactive | – | – | – | did not induce apoptosis
